In patent US20200315996A1 (Board of Trustees, Southern Illinois University, priority 2016, published 2020):

Key:
Type in all cases: in vivo, mice
[1] = system: PGR; test: Immunohistochemistry of endometriotic lesions, PGR; conditions: 3 weeks; for % of PGR positive cells/total cells/0.007 mm^2, Stroma: control 47.2 ± 4.0; for % of PGR positive cells/total cells/0.007 mm^2, Epithelium: control 76.7 ± 7.0
From the text: (§1) The presence and location of different proteins in the tissues obtained from the recipient mice. Samples of uterine tissue were isolated from the recipient mice, fixed by standard histological methods, and embedded in paraffin. Thin sections (5 μm) of the paraffin-embedded tissues were screened with standard immunohistochemical methods using antibodies to identify the expression of in the uterine tissues.
(§2) Primary antibodies that recognized MKI67 (Ki67), PECAM1 (CD31), ESR1, PGR, p-CHUK (IKK), p-STAT3, NOS2 (iNOS) and PTGS2 (COX2), and Vectastain Elite ABC Kit (# PK-6101), Mouse on Mouse Basic Kit (# BMK-2202, Vector laboratories) or DyLight-conjugated secondary antibody (#711-516-152, Jackson ImmunoResearch Lab) were used to show the presence of the proteins in the tissues, which were examined under microscopes.
The primary antibodies used in these analyses were: anti-MKI67 (Ki67, 1:200 dilution, 550609, BD Biosciences), anti-PECAM1 (CD31, 1:100 dilution, ab28364, Abcam), anti-ESR1 (1:100 dilution, sc-542, Santa Cruz Biotechnology), anti-PGR (1:200 dilution, RB-9017-P0, Thermo Scientific), anti-p-CHUK (IKK, 1:150 dilution, 2697, Cell Signaling Technology), anti-p-STAT3 (1:50 dilution, 9145, Cell Signaling Technology), anti-NOS2 (iNOS, 1:50 dilution, 610333, BD Biosciences) and anti-PTGS2 (COX2, 1:50 dilution, RM-9121, Thermo Scientific).
The expression of MKI67, ESR1, PGR, p-CHUK, p-STAT3, NOS2 and PTGS2 proteins in uterine tissues, as determined by immunohistochemical analysis of uterine tissue sections, was semiquantitatively analyzed. Levels of apoptosis were analyzed by TUNEL assay and also semiquantitatively analyzed. Histological sections were obtained from 4 different lesions. For each section, three different areas measuring 0.007 mm^2 were chosen. In each of those areas, the total number of epithelial or stromal cells was counted, as was the number of cells that tested positive for expressing MKI67 (a marker of cellular proliferation), steroid receptors ESR1 and PGR, and inflammatory signaling molecules p-CHUK, p-STAT3, NOS2 and PTGS2 proteins.

[2] = system: genes related to inflammation; test: RNA sequencing and qPCR of endometriotic lesions; conditions: 3 weeks vs control
Experimental: The endometriotic lesions were screened by RNA sequencing for the expression of a variety of genes of interest. Total RNA was isolated from the lesions using the RNeasy mini kit (#74104, Qiagen). RNA quality was assessed, and RNA-sequencing (RNA-seq) were performed at the Functional Genomics Core Facility of University of Illinois. Briefly, the stranded RNA-seq libraries were prepared with IIlumina's TruSeq Stranded RNA Sample Prep kit (# RS-122-2201, Illumina). The libraries were pooled in equimolar concentration, and the pool was quantitated by qPCR and sequenced on one lane for 101 cycles on a HiSeq2500 (Illumina) using a HiSeq SBS sequencing kit (# FC-401-4002, Illumina). Fastq files were generated and demultiplexed with the bcl2fastq v1.8.4 Conversion Software (Illumina). Quantitative PCR (qPCR) was performed as described previously [Reardon, 2012]. The 5′-3′ sequences of the primer pairs (forward and reverse primer pairs) used to determine the presence of different genes are shown in Table 3. For each gene, the name of the gene, the accession number of the gene, the 5′-3′ sequence of the paired primers, and the length of the amplicon obtained is provided in Table 3. All experimental data were subjected to one-way ANOVA tests and the differences between individual means were tested by a Tukey multiple-range test using Prism 5.0 (GraphPad). qPCR data were tested by t-test using Prism 5.0. Tests of significance were performed using the appropriate error terms according to the expectation of the mean squares for error. […] Data are presented as mean with standard error of the mean (SEM).

[3] = system: PECAM1 (CD31); test: Immunohistochemistry of endometriotic lesions, PECAM1 (endothelial cells); conditions: 3 weeks, control 38.3 ± 3.6
From the text: as §1
as §2, with “microscopes. […]” for “microscopes.”
The expression of PECAM1, a marker of endothelial cells, was semiquantitatively analyzed using areas of 0.02 mm^2 (3 different areas counted from each section, with sections obtained from 4 different lesions), and semiquantitatively analyzed.

## O=C(Nc1ccc([N+](=O)[O-])cc1Cl)c1cc(Cl)ccc1O [niclosamide, 5-chloro-N-(2-chloro-4-nitrophenyl)-2-hydroxybenzamide]
[1]; 100 mg/kg b.w./day oral
  % of PGR positive cells/total cells/0.007 mm^2, Stroma: 58.1 ± 5.2%
  % of PGR positive cells/total cells/0.007 mm^2, Epithelium: 60.4 ± 10.7%
[1]; 200 mg/kg b.w./day oral
  % of PGR positive cells/total cells/0.007 mm^2, Stroma: 50.1 ± 6.9%
  % of PGR positive cells/total cells/0.007 mm^2, Epithelium: 69.9 ± 12.2%
[2]; 200 mg/kg b.w./day
  Ccl17 level in the endometriotic lesions: increased
[2]; qPCR n=6-8, 200 mg/kg b.w./day
  expression of genes related to inflammation (Cxcl14, Lep, Lpo, Muc13, Trpc3 and Ptprz1) in the endometriotic lesions: significantly decreased
[2]; qPCR, 200 mg/kg b.w./day
  expression of Id4 and Wnt7a in treated lesions: reduced
[3]; 100 mg/kg b.w./day oral
  Cell number of PECAM1 positive cells/0.02 mm^2: 34.7 ± 3.6 cells/0.02 mm^2
[3]; 200 mg/kg b.w./day oral
  Cell number of PECAM1 positive cells/0.02 mm^2: 32.7 ± 2.8 cells/0.02 mm^2
